Reference: ChEMBL document CHEMBL5126542, “Toll-like receptor 4 (TLR4) inhibitors: Current research and prospective” (Eur J Med Chem, 2022)
≈ marks a conversion by molar mass, not a printed value.

How the values were obtained:
RAW264.7 [1] = assay: Antiinflammatory activity in mouse RAW264.7 cells assessed as decrease in LPS-induced NO secretion preincubated for 1 hr followed by LPS stimulation and measured after 24 hrs by Griess reagent based assay; format: functional, cell-based
[2] = Cytotoxicity against HEK293 cells assessed as cell survival at 10 uM incubated for 16 to 24 hrs by MTT method; format: toxicity, cell-based; settings: human, time 16-24 hrs, read-out: Activity
Toll-like receptor 4 [3] = molecular target: T1, Toll-like receptor 4 (Homo sapiens, UniProt O00206); assay: Inhibition of TLR4 in HEK293 cells assessed as reduction in LPS-stimulated NF-kappaB activation at 10 uM incubated for 16 to 24 hrs by SEAP reporter gene assay relative to control; format: cell-based; settings: time 16-24 hrs
Toll-like receptor 4 [4] = molecular target: T1, Toll-like receptor 4; assay: Inhibition of human TLR4 expressed in HEK293-Blue hTLR4 cells assessed as SEAP expression; format: cell-based, HEK-Blue hTLR4
Liver [5] = assay: Inhibition of CIS-induced MyD88 mRNA expression in rat hepatic tissue by SYBR-green dye based RT-PCR analysis; format: functional
Liver [6] = assay: Inhibition of CIS-induced NF-kappaBp53 mRNA expression in rat hepatic tissue by SYBR-green dye based RT-PCR analysis; format: functional
Liver [7] = assay: Inhibition of CIS-induced TLR4 protein expression in rat hepatic tissue by Western blot analysis; format: functional
Liver [8] = assay: Inhibition of CIS-induced TLR4 mRNA expression in rat hepatic tissue by SYBR-green dye based RT-PCR analysis; format: functional
RAW264.7 [9] = assay: Antiinflammatory activity in mouse RAW264.7 cells assessed as decrease in LPS-induced IL-1beta secretion preincubated for 1 hr followed by LPS stimulation and measured after 24 hrs by ELISA; format: functional, cell-based
RAW264.7 [10] = assay: Antiinflammatory activity in mouse RAW264.7 cells assessed as decrease in LPS-induced TNF-alpha secretion preincubated for 1 hr followed by LPS stimulation and measured after 24 hrs by ELISA; format: functional, cell-based
HEK293 = assay: Cytotoxicity against HEK293 cells assessed as cell survival at 20 uM incubated for 16 to 24 hrs by MTT method; format: functional; settings: Homo sapiens, time 16-24 hrs, read-out: Activity
Toll-like receptor 4 [11] = molecular target: T1, Toll-like receptor 4; assay: Inhibition of TLR4 in HEK293 cells assessed as reduction in LPS-stimulated NF-kappaB activation at 20 uM incubated for 16 to 24 hrs by SEAP reporter gene assay relative to control; format: cell-based; settings: time 16-24 hrs
Toll-like receptor 4 [12] = molecular target: T1, Toll-like receptor 4; assay: Inhibition of LPS-stimulated TLR4 activation in HEK-Blue-hTLR4 cells assessed as reduction in SEAP release preincubated for 15 mins followed by LPS stimulation and measured after 16 hrs by microplate reader assay; format: cell-based
Toll-like receptor 4 [13] = molecular target: T1, Toll-like receptor 4; assay: Binding affinity to TLR4 in human THP-1 monocytes after 48 hrs by ELISA; format: cell-based
[14] = Inhibition of LPS-induced NO production in mouse BV-2 microglia cells incubated for 24 hrs by 2,3-diaminonaphthalene assay; format: functional, cell-based; settings: BV-2, 24 h
[15] = Inhibition of HMGB1-induced TLR4 protein expression in mouse primary microglia preincubated for 12 hrs followed by HMGB1 stimulation for 30 mins by Western blot analysis; format: functional; settings: time 12.5 hrs
[16] = Inhibition of TLR4 expression in human monocytes; format: functional, cell-based; settings: Monocyte
HEK293T = assay: Inhibition of LPS-stimulated human TLR4/MD2 expressed in HEK293T cells assessed as reduction in NF-kappaB activation preincubated for 1 hr followed by LPS stimulation for 8 hrs by luciferase reporter gene assay; format: cell-based; settings: time 9.0 hrs
[17] = Inhibition of LPS-stimulated NO production in mouse RAW264.7 cells at 10 nM incubated for overnight by 2,3-diaminonaphthalene assay relative to control; format: functional

T1 sequence (O00206 whole entry): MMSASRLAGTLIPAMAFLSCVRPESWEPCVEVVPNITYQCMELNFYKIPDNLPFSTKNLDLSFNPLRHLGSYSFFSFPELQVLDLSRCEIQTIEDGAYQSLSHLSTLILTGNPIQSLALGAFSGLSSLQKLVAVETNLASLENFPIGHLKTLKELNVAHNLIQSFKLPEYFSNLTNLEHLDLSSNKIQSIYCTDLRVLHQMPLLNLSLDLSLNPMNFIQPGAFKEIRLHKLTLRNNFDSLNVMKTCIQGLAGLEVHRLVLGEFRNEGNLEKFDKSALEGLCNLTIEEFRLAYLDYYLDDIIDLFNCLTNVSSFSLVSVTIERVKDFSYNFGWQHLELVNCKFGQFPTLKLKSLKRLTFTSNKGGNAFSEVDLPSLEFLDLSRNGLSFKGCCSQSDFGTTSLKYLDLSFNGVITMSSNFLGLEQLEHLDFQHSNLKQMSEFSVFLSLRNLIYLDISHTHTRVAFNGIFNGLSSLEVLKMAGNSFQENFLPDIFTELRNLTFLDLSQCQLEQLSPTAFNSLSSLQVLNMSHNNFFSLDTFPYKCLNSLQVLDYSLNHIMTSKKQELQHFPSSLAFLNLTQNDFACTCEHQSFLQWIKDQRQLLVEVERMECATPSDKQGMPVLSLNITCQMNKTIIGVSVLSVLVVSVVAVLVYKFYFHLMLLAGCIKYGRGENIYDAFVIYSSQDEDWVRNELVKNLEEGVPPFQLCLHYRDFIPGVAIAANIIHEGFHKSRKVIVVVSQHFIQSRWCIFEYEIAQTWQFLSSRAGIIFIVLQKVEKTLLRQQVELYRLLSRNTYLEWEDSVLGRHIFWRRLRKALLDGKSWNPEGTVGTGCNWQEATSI

Structure (SMILES): COc1ccc(C(C)=O)c(Oc2ccc(NC(=O)/C=C/c3cc(OC)c(OC)c(OC)c3)cc2)c1
- IC50 (RAW264.7 [1]): 6.96 µM

Structure (SMILES): C=CC(=O)N(c1ccc(F)cc1Cl)S(=O)(=O)c1ccccc1C(=O)OC
- viability at 10 µM [2]: 88.5%
- inhibition (Toll-like receptor 4 [3]): 100%

Structure (SMILES): N/C(=N\c1ncc(C(=O)c2cc(Cl)ccc2O)cn1)Nc1ccc(F)cc1
- IC50 (Toll-like receptor 4 [4]): 40 µM

Structure (SMILES): CC(/C=C/C=C(\C)C(=O)O[C@@H]1O[C@H](CO[C@@H]2O[C@H](CO)[C@@H](O)[C@H](O)[C@H]2O)[C@@H](O)[C@H](O)[C@H]1O)=C\C=C\C=C(C)\C=C\C=C(/C)C(=O)O[C@@H]1O[C@H](CO[C@@H]2O[C@H](CO)[C@@H](O)[C@H](O)[C@H]2O)[C@@H](O)[C@H](O)[C@H]1O [CROCIN]
- inhibition (INH) (Liver [5]): 53.2%
- inhibition (INH) (Liver [6]): 66.2%
- inhibition (INH) (Liver [7]): 53.1%
- inhibition (INH) (Liver [8]): 57.7%

Structure (SMILES): O=S(=O)(Nc1ccc(C(F)(F)F)cc1)c1cccc2cccnc12
- IC50 (RAW264.7 [9]): 12.7 µM
- IC50 (RAW264.7 [10]): 9.74 µM
- IC50 (RAW264.7 [1]): 2.61 µM

Structure (SMILES): CC(C)Nc1ccc(N2CC[C@]34CCCC[C@H]3[C@H]2Cc2ccc(O)cc24)cc1
- viability at 20 µM (HEK293): 89.9%
- inhibition (Toll-like receptor 4 [11]): 99.8%

Structure (SMILES): COc1ccc(N/C(N)=N/c2ncc(C(=O)c3ccccc3O)cn2)cc1
- IC50 (Toll-like receptor 4 [4]): 27 µM

Structure (SMILES): CCCCC/C=C\C/C=C\CCCCCCC(=O)N[C@H]1[C@H](OC(=O)CCC(=O)O)O[C@H](CO)[C@@H](OC(=O)CCC(=O)O)[C@@H]1OC(=O)CCCCCC/C=C\C/C=C\CCCCC
- IC50 (Toll-like receptor 4 [12]): 4.35 µM

Structure (SMILES): CC(=O)N[C@H]1[C@H](OC2CCCCC2)O[C@H](CO)[C@@H](O[C@@H]2O[C@H](CO)[C@@H](O[C@@H]3O[C@H](CO)[C@@H](O[C@@H]4O[C@H](CO)[C@@H](O[C@@H]5O[C@H](CO)[C@@H](O[C@@H]6O[C@H](CO)[C@@H](O)[C@H](O)[C@H]6NC(C)=O)[C@H](O)[C@H]5NC(C)=O)[C@H](O)[C@H]4NC(C)=O)[C@H](O)[C@H]3NC(C)=O)[C@H](O)[C@H]2NC(C)=O)[C@@H]1O
- IC50 (Toll-like receptor 4 [13]): 0.15 µM

Structure (SMILES): CCCCCCCCC/C=C\CCCCCCC(=O)N[C@H]1[C@H](OC(=O)CCC(=O)O)O[C@H](CO)[C@@H](OC(=O)CCC(=O)O)[C@@H]1OC(=O)CCCCCCCCCCCCC
- IC50 (Toll-like receptor 4 [12]): 2.7 µM

Structure (SMILES): CCCCCCCC/C=C\CCCCCCC(=O)N[C@H]1[C@H](OC(=O)CCC(=O)O)O[C@H](CO)[C@@H](OC(=O)CCC(=O)O)[C@@H]1OC(=O)CCCCCC/C=C\CCCCCCCC
- IC50 (Toll-like receptor 4 [12]): 3.5 µM

Structure (SMILES): CCCCCCCCCCCCCC(=O)N[C@H]1[C@H](OC(=O)CCC(=O)O)O[C@H](CO)[C@@H](OC(=O)CCC(=O)O)[C@@H]1OC(=O)CCCCCCCCCCCCC
- IC50 (Toll-like receptor 4 [12]): 5.91 µM

Structure (SMILES): C=CC(=O)N(c1ccc(F)cc1Cl)S(=O)(=O)N1CCCCC1C(=O)OC (stereo not drawn)
- viability at 10 µM [2]: 92.2%
- inhibition (Toll-like receptor 4 [3]): 100%

Structure (SMILES): CCCCC/C=C\C/C=C\CCCCCCC(=O)N[C@H]1[C@H](OC(=O)CCC(=O)O)O[C@H](CO)[C@@H](OC(=O)CCC(=O)O)[C@@H]1OC(=O)CCCCCCCCCCCCC
- IC50 (Toll-like receptor 4 [12]): 6.61 µM

Structure (SMILES): O=C1CC[C@@]2(O)[C@H]3Cc4ccc(O)c5c4[C@@]2(CCN3CC2CC2)[C@H]1O5 [NALTREXONE]
- IC50 [14]: 106 µM

Structure (SMILES): COc1ccc(C[C@H]2COC(=O)[C@@H]2Cc2ccc(O[C@@H]3O[C@H](CO)[C@@H](O)[C@H](O)[C@H]3O)c(OC)c2)cc1OC [ARCTIIN]
- MIC [15]: ≤ 50 µM

Structure (SMILES): CC(=O)N[C@H]1[C@H](Oc2ccc([N+](=O)[O-])cc2)O[C@H](CO)[C@@H](O)[C@@H]1O
- IC50 [16]: 0.042 µM

Structure (SMILES): O=C(/C=C/c1ccc(O)c(O)c1)OCCc1ccccc1
- MIC (HEK293T): 1 µM (≈ 0.284 µg/mL)

Structure (SMILES): COc1ccc(C(=O)c2cnc(/N=C(\N)Nc3ccc(F)cc3)nc2)c(O)c1
- IC50 (Toll-like receptor 4 [4]): 18 µM

Structure (SMILES): CCOC(=O)C1=C[C@@H](O)CC[C@H]1S(=O)(=O)Cc1ccc(F)cc1Cl
- inhibition at 0.01 µM [17]: 98%
